What was measured:
[1] = target: T1, Tyrosinase (Agaricus bisporus) (UniProt O42713); conditions: 2.5 uM
T1 sequence (whole entry): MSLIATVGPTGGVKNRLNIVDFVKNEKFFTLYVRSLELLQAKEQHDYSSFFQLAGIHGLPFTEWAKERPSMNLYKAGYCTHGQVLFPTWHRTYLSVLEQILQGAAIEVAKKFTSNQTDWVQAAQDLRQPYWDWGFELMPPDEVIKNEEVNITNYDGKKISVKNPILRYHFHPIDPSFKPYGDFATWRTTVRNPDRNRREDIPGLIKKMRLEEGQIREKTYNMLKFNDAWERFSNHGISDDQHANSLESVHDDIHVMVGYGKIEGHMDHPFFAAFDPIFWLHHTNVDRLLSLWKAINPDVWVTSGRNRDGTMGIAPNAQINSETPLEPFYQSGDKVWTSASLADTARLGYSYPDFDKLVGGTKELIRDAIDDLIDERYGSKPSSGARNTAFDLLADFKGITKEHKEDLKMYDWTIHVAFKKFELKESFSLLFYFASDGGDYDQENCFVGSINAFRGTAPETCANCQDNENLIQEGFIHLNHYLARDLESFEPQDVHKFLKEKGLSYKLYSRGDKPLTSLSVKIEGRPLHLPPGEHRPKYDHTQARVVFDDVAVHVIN
Description: Inhibition of mushroom tyrosinase at 2.5 uM

[2] = target: T2, Tyrosinase (Mus musculus) (UniProt P11344); test: Inhibition of tyrosinase activity in mouse B16 cells at 25 uM; assay type: cell-based
T2 sequence (whole entry): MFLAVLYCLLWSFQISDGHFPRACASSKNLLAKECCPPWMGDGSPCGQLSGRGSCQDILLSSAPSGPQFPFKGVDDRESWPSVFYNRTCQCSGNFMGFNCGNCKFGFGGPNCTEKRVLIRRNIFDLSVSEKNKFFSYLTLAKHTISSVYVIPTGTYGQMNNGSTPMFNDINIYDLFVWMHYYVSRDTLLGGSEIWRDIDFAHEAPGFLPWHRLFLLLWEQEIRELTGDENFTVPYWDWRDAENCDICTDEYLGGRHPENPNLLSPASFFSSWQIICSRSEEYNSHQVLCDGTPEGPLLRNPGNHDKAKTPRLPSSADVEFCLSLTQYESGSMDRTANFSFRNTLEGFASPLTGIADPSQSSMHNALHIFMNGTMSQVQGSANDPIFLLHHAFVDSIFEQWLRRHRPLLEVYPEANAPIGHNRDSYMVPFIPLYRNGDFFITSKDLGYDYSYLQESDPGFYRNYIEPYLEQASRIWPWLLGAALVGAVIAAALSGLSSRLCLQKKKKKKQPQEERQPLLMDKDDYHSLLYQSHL

[3] = target: T2, Tyrosinase (Mus musculus); test: Inhibition of tyrosinase activity in mouse B16 cells at 400 uM; assay type: cell-based
[4] = target: T1, Tyrosinase (Agaricus bisporus); conditions: 0.5 uM
Description: Inhibition of mushroom tyrosinase at 0.5 uM

[5] = target: T1, Tyrosinase (Agaricus bisporus); conditions: 1 uM
Description: Inhibition of mushroom tyrosinase at 1 uM

B16 [6] = test: Antimelanogenic activity in mouse B16 cells assessed as inhibition of melanin content at 400 uM relative to alpha-MSH; assay type: functional
[7] = Cytotoxicity against mouse B16 cells assessed as cell viability at 50 uM after 24 hrs by MTT assay; assay type: cell-based; conditions: read-out: Activity
B16 [8] = test: Antimelanogenic activity in mouse B16 cells assessed as inhibition of melanin content at 100 uM relative to alpha-MSH; assay type: functional
[9] = Cytotoxicity against mouse B16 cells assessed as cell viability at 100 uM after 24 hrs by MTT assay; assay type: cell-based; conditions: read-out: Activity
[10] = target: T2, Tyrosinase (Mus musculus); test: Inhibition of tyrosinase activity in mouse B16 cells at 100 uM; assay type: cell-based
[11] = Cytotoxicity against mouse B16 cells assessed as cell viability at 25 uM after 24 hrs by MTT assay; assay type: cell-based; conditions: read-out: Activity
[12] = target: T1, Tyrosinase (Agaricus bisporus); conditions: 5 uM
Description: Inhibition of mushroom tyrosinase at 5 uM

B16 [13] = test: Antimelanogenic activity in mouse B16 cells assessed as inhibition of melanin content at 25 uM relative to alpha-MSH; assay type: functional

inhibition [1]: 39.4%
inhibition [2]: 26.2%
inhibition [3]: 2.05%
inhibition [4]: 7.53%
inhibition [5]: 18.7%
inhibition [10]: 14.1%
inhibition [12]: 86.1%
Structure (SMILES): Oc1ccc2cc(-c3cc(O)c(O)c(O)c3)ccc2c1
inhibition at 400 µM (B16 [6]): 34.7%
viability at 24 h, 50 µM [7]: 98.1%
inhibition at 100 µM (B16 [8]): 45.8%
viability at 24 h, 100 µM [9]: 95.1%
viability at 24 h, 25 µM [11]: 98.3%
inhibition at 25 µM (B16 [13]): 50.7%
